Reference: patent publication US7872014B2, “Anaplastic lymphoma kinase modulators and methods of use” (Exelixis, Inc., priority 2003, dated 2011)

target: T1, ALK (baculovirus expressed human ALK kinase domain F1098-K1410) (Homo sapiens, UniProt Q9UM73); assay: Luciferase-Coupled Chemiluminescent Kinase assay (LCCA), ALK biochemical activity; conditions: inhibition of ALK; mean values; 1 μM ATP, 4 μM poly-AEKY, 12 nM ALK, 2 hours ambient temperature
T1 construct: baculovirus expressed human ALK kinase domain F1098-K1410; made in house
Protocol: ALK biochemical activity was assessed using a Luciferase-Coupled Chemiluminescent Kinase assay (LCCA) format in which kinase activity was measured as the percent ATP remaining following the kinase reaction. ATP remaining after the kinase reaction was detected by luciferase-luciferin-coupled chemiluminescence.
The reaction was initiated by mixing test compounds, 1 μM ATP, 4 μM poly-AEKY and 12 nM ALK (baculovirus expressed human ALK kinase domain F1098-K1410) in a 20 μL assay buffer ([…] pH 7.5, 10 mM MgCl2, 0.02% Triton X-100, 100 mM DTT, 2 mM MnCl2). The mixture was incubated at ambient temperature for 2 hours after which 20 μL luciferase-luciferin mix was added and the chemiluminescent signal read using a Wallac Victor^2 reader. The luciferase-luciferin mix consists of 50 mM HEPES, pH 7.8, 8.5 μg/mL oxalic acid (pH 7.8), 5 (or 50) mM DTT, 0.4% Triton X-100, 0.25 mg/mL coenzyme A, 63 μM AMP, 28 μg/mL luciferin and 40,000 units of light/mL luciferase.
Consumption of ATP by ALK can thus be quantified and utilized as a measure of inhibition of ALK activity by compounds described herein. By employing serial dilutions of compounds to be tested, the ability of test compounds to inhibit ALK activity can be determined.

T1 sequence (Q9UM73 1098-1410): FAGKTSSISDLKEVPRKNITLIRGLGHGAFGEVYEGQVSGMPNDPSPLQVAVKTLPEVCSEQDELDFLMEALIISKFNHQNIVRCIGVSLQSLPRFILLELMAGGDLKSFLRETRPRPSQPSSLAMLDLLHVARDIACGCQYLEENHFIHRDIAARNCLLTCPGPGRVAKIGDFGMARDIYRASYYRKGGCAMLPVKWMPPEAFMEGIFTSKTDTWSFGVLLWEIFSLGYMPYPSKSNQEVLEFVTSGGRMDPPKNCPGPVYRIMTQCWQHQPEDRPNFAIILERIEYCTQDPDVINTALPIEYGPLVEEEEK

Row | Structure (SMILES) | IC50 [nM]
1 | COc1cc2c(-c3ccc(O)cc3)nc3[nH]nc(C4CCN(C(=O)OC(C)(C)C)CC4)c3c2cc1OC [Example 67, 1,1-dimethylethyl 4-[5-(4-hydroxyphenyl)-7,8-bis(methyloxy)-3H-pyrazolo[3,4-c]isoquinolin-1-yl]piperidine-1-carboxylate] | 100 to 999
2 | COc1ccc2c(-c3ccc(O)c(Cl)c3)nc3[nH]nc(C)c3c2c1OC [Example 69, 2-chloro-4-[1-methyl-8,9-bis(methyloxy)-3H-pyrazolo[3,4-c]isoquinolin-5-yl]phenol] | ≤ 99
3 | COc1ccc2c(-c3ccc(O)c(F)c3)nc3[nH]nc(C)c3c2c1OC [Example 70, 2-fluoro-4-[1-methyl-8,9-bis(methyloxy)-3H-pyrazolo[3,4-c]isoquinolin-5-yl]phenol] | ≤ 99
4 | COc1ccc2c(-c3ccc(O)c(C)c3)nc3[nH]nc(C)c3c2c1OC [Example 71, 2-methyl-4-[1-methyl-8,9-bis(methyloxy)-3H-pyrazolo[3,4-c]isoquinolin-5-yl]phenol] | ≤ 99
5 | COc1ccc2c(-c3ccc(O)c(Br)c3)nc3[nH]nc(C)c3c2c1OC [Example 72, 2-bromo-4-[1-methyl-8,9-bis(methyloxy)-3H-pyrazolo[3,4-c]isoquinolin-5-yl]phenol] | ≤ 99
6 | COc1cc2c(-c3ccc(O)c(OC(F)F)c3)nc3[nH]nc(C)c3c2cc1OC [Example 76, 2-[(difluoromethyl)oxy]-4-[1-methyl-7,8-bis(methyloxy)-3H-pyrazolo[3,4-c]isoquinolin-5-yl]phenol] | 1000 to 2000
7 | COc1ccc2c(-c3ccc(O)cc3)nc3[nH]nc(C)c3c2c1C [Example 78, 4-[1,9-dimethyl-8-(methyloxy)-3H-pyrazolo[3,4-c]isoquinolin-5-yl]phenol] | ≤ 99
8 | COc1cc(F)c2c(-c3ccc(O)cc3)nc3[nH]nc(C)c3c2c1F [Example 79, 4-[6,9-difluoro-1-methyl-8-(methyloxy)-3H-pyrazolo[3,4-c]isoquinolin-5-yl]phenol] | ≤ 99
9 | COc1ccc2c(-c3ccc(O)c(Br)c3)nc3[nH]nc(C)c3c2c1OCCN1CCOCC1 [Example 80, 2-bromo-4-{1-methyl-8-(methyloxy)-9-[(2-morpholin-4-ylethyl)oxy]-3H-pyrazolo[3,4-c]isoquinolin-5-yl}phenol] | 100 to 999
10 | COc1ccc2c(-c3ccc(O)c(Cl)c3)nc3[nH]nc(C)c3c2c1OCCN1CCOCC1 [Example 81, 2-chloro-4-{1-methyl-8-(methyloxy)-9-[(2-morpholin-4-ylethyl)oxy]-3H-pyrazolo[3,4-c]isoquinolin-5-yl}phenol] | 100 to 999
11 | COc1cc2c(-c3ccc(O)cc3)nc3[nH]nc(CNCc4ccccc4)c3c2cc1OC [Example 82, 4-(7,8-bis(methyloxy)-1-{[(phenylmethyl)amino]methyl}-3H-pyrazolo[3,4-c]isoquinolin-5-yl)phenol] | 100 to 999
12 | COc1cc2c(-c3cc(C)c(O)cc3C)nc3[nH]nc(C)c3c2cc1OC [Example 83, 2,5-dimethyl-4-[1-methyl-7,8-bis(methyloxy)-3H-pyrazolo[3,4-c]isoquinolin-5-yl]phenol] | 100 to 999
13 | COc1cc2c(-c3cc(Cl)c(O)cc3Cl)nc3[nH]nc(C)c3c2cc1OC [Example 85, 2,5-dichloro-4-[1-methyl-7,8-bis(methyloxy)-3H-pyrazolo[3,4-c]isoquinolin-5-yl]phenol] | ≤ 99
14 | COc1ccc2c(-c3ccc(O)c(Br)c3)nc3[nH]nc(C)c3c2c1OCC1CCN(C)CC1 [Example 87, 2-bromo-4-(1-methyl-8-(methyloxy)-9-{[(1-methylpiperidin-4-yl)methyl]oxy}-3H-pyrazolo[3,4-c]isoquinolin-5-yl)phenol] | ≤ 99
15 | COc1cc2c(-c3ccc(O)c(Cl)c3)nc3[nH]nc(C)c3c2cc1OCC1CCN(C)CC1 [Example 88, 2-chloro-4-(1-methyl-7-(methyloxy)-8-{[(1-methylpiperidin-4-yl)methyl]oxy}-3H-pyrazolo[3,4-c]isoquinolin-5-yl)phenol] | ≤ 99
16 | COc1ccc2c(-c3ccc(O)cc3)nc3[nH]nc(C)c3c2c1F [Example 89, 4-[9-fluoro-1-methyl-8-(methyloxy)-3H-pyrazolo[3,4-c]isoquinolin-5-yl]phenol] | ≤ 99
17 | COCCOc1c(OC)ccc2c(-c3ccc(O)cc3)nc3[nH]nc(C)c3c12 [Example 90, 4-(1-methyl-8-(methyloxy)-9-{[2-(methyloxy)ethyl]oxy}-3H-pyrazolo[3,4-c]isoquinolin-5-yl)phenol] | ≤ 99
18 | COc1ccc2c(-c3ccc(O)c(Cl)c3)nc3[nH]nc(C)c3c2c1OCC1CCN(C)CC1 [Example 91, 2-chloro-4-(1-methyl-8-(methyloxy)-9-{[(1-methylpiperidin-4-yl)methyl]oxy}-3H-pyrazolo[3,4-c]isoquinolin-5-yl)phenol] | ≤ 99

Row | Structure (SMILES) | IC50 [nM]
19 | COc1cc2c(c(-c3ccc(O)cc3)nc3[nH]nc(C)c32)c(Br)c1C [Example 92, 4-[6-bromo-1,7-dimethyl-8-(methyloxy)-3H-pyrazolo[3,4-c]isoquinolin-5-yl]phenol] | ≤ 99
20 | COc1cc2c(c(-c3ccc(O)cc3)nc3[nH]nc(C)c32)c(F)c1OC [Example 93, 4-[6-fluoro-1-methyl-7,8-bis(methyloxy)-3H-pyrazolo[3,4-c]isoquinolin-5-yl]phenol] | ≤ 99
21 | COc1c(C)cc2c(-c3ccc(O)cc3)nc3[nH]nc(C)c3c2c1Cl [Example 94, 4-[9-chloro-1,7-dimethyl-8-(methyloxy)-3H-pyrazolo[3,4-c]isoquinolin-5-yl]phenol] | ≤ 99
22 | CCN1CCC(COc2cc3c(cc2OC)c(-c2ccc(O)c(Cl)c2)nc2[nH]nc(C)c23)CC1 [Example 95, 2-chloro-4-[8-{[(1-ethylpiperidin-4-yl)methyl]oxy}-1-methyl-7-(methyloxy)-3H-pyrazolo[3,4-c]isoquinolin-5-yl]phenol] | ≤ 99
23 | COc1cc2c(-c3ccc(O)cc3Cl)nc3[nH]nc(C)c3c2cc1OC [Example 96, 3-chloro-4-[1-methyl-7,8-bis(methyloxy)-3H-pyrazolo[3,4-c]isoquinolin-5-yl]phenol] | ≤ 99
24 | COCCOc1ccc2c(-c3ccc(O)cc3)nc3[nH]nc(C)c3c2c1OCCOC [Example 97, 4-(1-methyl-8,9-bis{[2-(methyloxy)ethyl]oxy}-3H-pyrazolo[3,4-c]isoquinolin-5-yl)phenol] | ≤ 99
25 | Cc1n[nH]c2nc(-c3ccc(O)cc3)c3ccccc3c12 [Example 98, 4-(1-methyl-3H-pyrazolo[3,4-c]isoquinolin-5-yl)phenol] | ≤ 99
26 | Cc1n[nH]c2nc(-c3ccc(O)c(Cl)c3)c3ccccc3c12 [Example 99, 2-chloro-4-(1-methyl-3H-pyrazolo[3,4-c]isoquinolin-5-yl)phenol] | ≤ 99
27 | Cc1n[nH]c2nc(-c3ccc(O)c(Br)c3)c3ccccc3c12 [Example 100, 2-bromo-4-(1-methyl-3H-pyrazolo[3,4-c]isoquinolin-5-yl)phenol] | ≤ 99
28 | COc1cc2c(cc1C)c(-c1ccc(O)c(Cl)c1)nc1[nH]nc(C)c12 [Example 101, 2-chloro-4-[1,7-dimethyl-8-(methyloxy)-3H-pyrazolo[3,4-c]isoquinolin-5-yl]phenol] | ≤ 99
29 | COc1cc2c(cc1C)c(-c1ccc(O)c(Br)c1)nc1[nH]nc(C)c12 [Example 102, 2-bromo-4-[1,7-dimethyl-8-(methyloxy)-3H-pyrazolo[3,4-c]isoquinolin-5-yl]phenol] | ≤ 99
30 | COc1cc2c(-c3ccc(O)c(Cl)c3)nc3[nH]nc(C)c3c2cc1OCC1CCN(C(C)C)CC1 [Example 103, 2-chloro-4-[1-methyl-8-({[1-(1-methylethyl)piperidin-4-yl]methyl}oxy)-7-(methyloxy)-3H-pyrazolo[3,4-c]isoquinolin-5-yl]phenol] | ≤ 99
31 | COc1ccc2c(-c3ccc(O)cc3)nc3[nH]nc(C)c3c2c1Br [Example 104, 4-[9-bromo-1-methyl-8-(methyloxy)-3H-pyrazolo[3,4-c]isoquinolin-5-yl]phenol] | ≤ 99
32 | COc1c(Cl)cc2c(-c3ccc(O)cc3)nc3[nH]nc(C)c3c2c1F [Example 105, 4-[7-chloro-9-fluoro-1-methyl-8-(methyloxy)-3H-pyrazolo[3,4-c]isoquinolin-5-yl]phenol] | 100 to 999
33 | COc1cc2c(-c3ccc(O)c(Cl)c3)nc3[nH]nc(C)c3c2cc1OCC1CCN(C(C)=O)CC1 [Example 106, 4-[8-{[(1-acetylpiperidin-4-yl)methyl]oxy}-1-methyl-7-(methyloxy)-3H-pyrazolo[3,4-c]isoquinolin-5-yl]-2-chlorophenol] | ≤ 99
34 | COc1ccc2c(-c3ccc(O)c(Br)c3)nc3[nH]nc(C)c3c2c1OCC1CCN(C(C)=O)CC1 [Example 107, 4-[9-{[(1-acetylpiperidin-4-yl)methyl]oxy}-1-methyl-8-(methyloxy)-3H-pyrazolo[3,4-c]isoquinolin-5-yl]-2-bromophenol] | ≤ 99
35 | COCCOc1ccc2c(-c3ccc(O)c(Cl)c3)nc3[nH]nc(C)c3c2c1OC [Example 108, 2-chloro-4-(1-methyl-9-(methyloxy)-8-{[2-(methyloxy)ethyl]oxy}-3H-pyrazolo[3,4-c]isoquinolin-5-yl)phenol] | ≤ 99
